Measured values taken from patent publication US20170088609A1, “ANTICANCER COMBINATION THERAPY” (priority 2015, published 2017).

What was measured:
[1] = system: HCC827 (EGFRDelE746-A750)
Excerpt: (§1) Compound 1 is a small molecule epidermal growth factor receptor (EGFR) mutant-specific inhibitor. […] Anti-tumor efficacy was independent of schedule (once daily versus twice daily administration) and was tolerated by the mice at clinically relevant exposure. Compound 1 is a novel, 3rd generation EGFR mutant-specific TKI, which is currently being investigated in first and second line setting for treatment of patients with EGFR-mutated NSCLC.

[2] = system: EGFR mutant cell lines; assay: Cellular assays comparing EGFR mutant with EGFR wild type cell lines (proliferation); type: cell-based; conditions: EGFR mutant vs EGFR wild type cell lines
Excerpt: as §1

[3] = system: mutant forms of EGFR; assay: Enzymatic inhibitory activity towards EGFR; type: biochemical
Excerpt: as §1

[4] = system: PC-9/GR/WR tumor xenografts; assay: PC-9/GR/WR xenograft studies (tumor volume); type: in vivo; conditions: SCID mice; HM61713 200 and 400 mg/kg oral gavage 5 days a week
Experimental: To establish the PC-9/GR/WR xenograft model, female severe combined immunodeficiency (SCID) mice (18-20 g, 6 weeks of age) were purchased from Charles River Laboratories. All experimental procedures were conducted following a protocol approved by the Institutional Animal Care and Use committee of Asan Institute for Life Sciences (2015-02-062). […] Combination with WZ4002: […] Combination with HM61713: […] Body weights were measured every 3-4 days. At the end of the combination experiment with WZ4002, tumors from each group were homogenized for lysate preparation and analyzed by Western Blotting.

[5] = system: H1975 (EGFRL858R/T790M); assay: In vivo xenograft study, NSCLC model H1975; conditions: H1975 xenograft in mice; once daily or twice daily
Excerpt: as §1

[6] = system: T790M-containing cell lines; conditions: several preclinical models; cited from earlier work

With `C=CC(=O)Nc1cccc(Oc2nc(Nc3ccc(N4CCN(C)CC4)cc3)nc3ccsc23)c1` [compound 1, N-(3-{2-[4-(4-methyl-piperazin-1-yl)-phenylamino]-thieno[3,2-d]pyrimidin-4-yloxy}-phenyl)-acrylamide] the “anti-tumor activity as a single agent” value ([1]; HCC827 xenograft in mice, once daily or twice daily) was “Tumor regressions”, the tolerability in mice ([1]; mouse, in vivo) was “tolerated” and the “inhibition of proliferation of mutated cell lines at lower concentration than for cells expressing wild type EGFR receptor” value [2] was “approximately 35 fold”. The “blocking of the catalytic activity of EGFR mutants” value ([3]; common EGFR mutants (L858R and exon 19 deletions) and certain uncommon EGFR mutants including T790M, covalent binding) was “irreversibly blocks”, the “enzymatic inhibitory activity towards mutant forms of EGFR compared to wild type EGFR” value ([3]; in vitro) was “more potent” and the “response of PC-9/GR/WR tumor xenografts to monotherapy” value [4] was “Cross-resistance”. The “anti-tumor activity as a single agent” value [5] was “Tumor regressions”.
In the case of `COc1cc2ncnc(Nc3ccc(F)c(Cl)c3)c2cc1NC(=O)/C=C/CN1CCCCC1` [dacomitinib], the “inhibition of T790M-containing cell lines” value [6] is listed as “effectively inhibit”.
